Data taken from PubChem BioAssay (NCI).
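Assay format: 96-well plates, 48-hour exposure. At the GI50, growth is halved. TGI marks complete inhibition of growth.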

Assays:
Experiment in all cases: inhibition of tumour cell growth, NCI panel, 48 h
M14 melanoma = test system: M14 melanoma
DU-145 prostate = test system: DU-145 prostate
SN12C renal = test system: SN12C renal
NCI-H226 lung = test system: NCI-H226 lung
HOP-92 NSCLC = test system: HOP-92 NSCLC
UACC-257 melanoma = test system: UACC-257 melanoma
EKVX NSCLC = test system: EKVX NSCLC
T-47D breast = test system: T-47D breast
MCF7 breast = test system: MCF7 breast
SNB-19 CNS = test system: SNB-19 CNS
PC-3 prostate = test system: PC-3 prostate
A498 renal = test system: A498 renal
HT29 colon = test system: HT29 colon
A549 NSCLC = test system: A549 NSCLC
K-562 leukemia = test system: K-562 leukemia
UACC-62 melanoma = test system: UACC-62 melanoma
NCI-H460 lung = test system: NCI-H460 lung
KM12 colon = test system: KM12 colon
IGROV1 ovarian = test system: IGROV1 ovarian
RXF 393 renal = test system: RXF 393 renal
SR leukemia = test system: SR leukemia
SF-268 CNS = test system: SF-268 CNS
NCI-H522 lung = test system: NCI-H522 lung
CAKI-1 renal = test system: CAKI-1 renal
MOLT-4 leukemia = test system: MOLT-4 leukemia
NCI/ADR-RES ovarian = test system: NCI/ADR-RES ovarian
786-0 renal = test system: 786-0 renal
SK-MEL-5 melanoma = test system: SK-MEL-5 melanoma
TK-10 renal = test system: TK-10 renal
HOP-62 NSCLC = test system: HOP-62 NSCLC
ACHN renal = test system: ACHN renal
UO-31 renal = test system: UO-31 renal
OVCAR-8 ovarian = test system: OVCAR-8 ovarian
U251 CNS = test system: U251 CNS
LOX IMVI melanoma = test system: LOX IMVI melanoma
SK-MEL-2 melanoma = test system: SK-MEL-2 melanoma
RPMI-8226 leukemia = test system: RPMI-8226 leukemia
OVCAR-4 ovarian = test system: OVCAR-4 ovarian
HCT-116 colon = test system: HCT-116 colon
HL-60(TB) leukemia = test system: HL-60(TB) leukemia
SK-MEL-28 melanoma = test system: SK-MEL-28 melanoma
HCT-15 colon = test system: HCT-15 colon
SK-OV-3 ovarian = test system: SK-OV-3 ovarian
SW-620 colon = test system: SW-620 colon
NCI-H23 lung = test system: NCI-H23 lung
OVCAR-3 ovarian = test system: OVCAR-3 ovarian
OVCAR-5 ovarian = test system: OVCAR-5 ovarian
MALME-3M melanoma = test system: MALME-3M melanoma
BT-549 breast = test system: BT-549 breast
SF-295 CNS = test system: SF-295 CNS
MDA-MB-435 = test system: MDA-MB-435
HCC-2998 colon = test system: HCC-2998 colon
SNB-75 CNS = test system: SNB-75 CNS
MDA-MB-231 breast = test system: MDA-MB-231 breast
HS 578T breast = test system: HS 578T breast
SF-539 CNS = test system: SF-539 CNS
CCRF-CEM leukemia = test system: CCRF-CEM leukemia
COLO 205 colon = test system: COLO 205 colon

O=P1(S)OC[C@H]2O[C@@H]3[C@H](F)[C@@H]2OP(O)(=S)OC[C@H]2O[C@H]([C@H](F)[C@@H]2O1)n1cnc2c(ncnc21)NC/C=C/CNc1ncnc2c1ncn23 (stereo partly drawn)
GI50 (M14 melanoma): > 100 µM
TGI (M14 melanoma): > 100 µM
GI50 (DU-145 prostate): > 100 µM
TGI (DU-145 prostate): > 100 µM
GI50 (SN12C renal): > 100 µM
TGI (SN12C renal): > 100 µM
GI50 (NCI-H226 lung): 0.652 µM
TGI (NCI-H226 lung): > 100 µM
TGI (HOP-92 NSCLC): > 100 µM
GI50 (UACC-257 melanoma): 0.316 µM
TGI (UACC-257 melanoma): > 100 µM
GI50 (EKVX NSCLC): > 100 µM
TGI (EKVX NSCLC): > 100 µM
GI50 (T-47D breast): > 100 µM
TGI (T-47D breast): > 100 µM
GI50 (MCF7 breast): > 100 µM
TGI (MCF7 breast): > 100 µM
GI50 (SNB-19 CNS): > 100 µM
TGI (SNB-19 CNS): > 100 µM
GI50 (PC-3 prostate): > 100 µM
TGI (PC-3 prostate): > 100 µM
GI50 (A498 renal): 0.543 µM
TGI (A498 renal): 11.5 µM
GI50 (HT29 colon): 43.7 µM
TGI (HT29 colon): > 100 µM
GI50 (A549 NSCLC): > 100 µM
TGI (A549 NSCLC): > 100 µM
GI50 (K-562 leukemia): > 100 µM
TGI (K-562 leukemia): > 100 µM
GI50 (UACC-62 melanoma): > 100 µM
TGI (UACC-62 melanoma): > 100 µM
GI50 (NCI-H460 lung): > 100 µM
TGI (NCI-H460 lung): > 100 µM
GI50 (KM12 colon): > 100 µM
TGI (KM12 colon): > 100 µM
GI50 (IGROV1 ovarian): > 100 µM
TGI (IGROV1 ovarian): > 100 µM
GI50 (RXF 393 renal): 0.764 µM
TGI (RXF 393 renal): > 100 µM
GI50 (SR leukemia): 0.239 µM
TGI (SR leukemia): > 100 µM
GI50 (SF-268 CNS): > 100 µM
TGI (SF-268 CNS): > 100 µM
GI50 (NCI-H522 lung): > 100 µM
TGI (NCI-H522 lung): > 100 µM
GI50 (CAKI-1 renal): > 100 µM
TGI (CAKI-1 renal): > 100 µM
GI50 (MOLT-4 leukemia): > 100 µM
TGI (MOLT-4 leukemia): > 100 µM
GI50 (NCI/ADR-RES ovarian): > 100 µM
TGI (NCI/ADR-RES ovarian): > 100 µM
GI50 (786-0 renal): > 100 µM
TGI (786-0 renal): > 100 µM
GI50 (SK-MEL-5 melanoma): > 100 µM
TGI (SK-MEL-5 melanoma): > 100 µM
GI50 (TK-10 renal): > 100 µM
TGI (TK-10 renal): > 100 µM
GI50 (HOP-62 NSCLC): > 100 µM
TGI (HOP-62 NSCLC): > 100 µM
GI50 (ACHN renal): > 100 µM
TGI (ACHN renal): > 100 µM
GI50 (UO-31 renal): > 100 µM
TGI (UO-31 renal): > 100 µM
GI50 (OVCAR-8 ovarian): > 100 µM
TGI (OVCAR-8 ovarian): > 100 µM
GI50 (U251 CNS): > 100 µM
TGI (U251 CNS): > 100 µM
GI50 (LOX IMVI melanoma): > 100 µM
TGI (LOX IMVI melanoma): > 100 µM
GI50 (SK-MEL-2 melanoma): > 100 µM
TGI (SK-MEL-2 melanoma): > 100 µM
GI50 (RPMI-8226 leukemia): > 100 µM
TGI (RPMI-8226 leukemia): > 100 µM
GI50 (OVCAR-4 ovarian): 5.36 µM
TGI (OVCAR-4 ovarian): > 100 µM
GI50 (HCT-116 colon): > 100 µM
TGI (HCT-116 colon): > 100 µM
GI50 (HL-60(TB) leukemia): 0.365 µM
GI50 (SK-MEL-28 melanoma): > 100 µM
TGI (SK-MEL-28 melanoma): > 100 µM
GI50 (HCT-15 colon): > 100 µM
TGI (HCT-15 colon): > 100 µM
GI50 (SK-OV-3 ovarian): 5.08 µM
TGI (SK-OV-3 ovarian): > 100 µM
GI50 (SW-620 colon): > 100 µM
TGI (SW-620 colon): > 100 µM
GI50 (NCI-H23 lung): > 100 µM
TGI (NCI-H23 lung): > 100 µM
GI50 (OVCAR-3 ovarian): > 100 µM
TGI (OVCAR-3 ovarian): > 100 µM
GI50 (OVCAR-5 ovarian): > 44.1 µM
TGI (OVCAR-5 ovarian): > 100 µM
GI50 (MALME-3M melanoma): > 100 µM
TGI (MALME-3M melanoma): > 100 µM
TGI (BT-549 breast): > 100 µM
GI50 (SF-295 CNS): > 100 µM
TGI (SF-295 CNS): > 100 µM
GI50 (MDA-MB-435): > 100 µM
TGI (MDA-MB-435): > 100 µM
GI50 (HCC-2998 colon): > 100 µM
TGI (HCC-2998 colon): > 100 µM
GI50 (SNB-75 CNS): > 79.9 µM
TGI (SNB-75 CNS): > 100 µM
GI50 (MDA-MB-231 breast): > 100 µM
TGI (MDA-MB-231 breast): > 100 µM
GI50 (HS 578T breast): > 100 µM
TGI (HS 578T breast): > 100 µM
GI50 (SF-539 CNS): 0.229 µM
TGI (SF-539 CNS): > 39.9 µM
GI50 (CCRF-CEM leukemia): > 100 µM
TGI (CCRF-CEM leukemia): > 100 µM
GI50 (COLO 205 colon): > 100 µM
TGI (COLO 205 colon): > 100 µM
